What was measured:
Type in all cases: physicochemical
[1] = Solubility of vanillin in solvent-heptane mixed solvents (1:1) at 25° C.
[2] = Solubility of vanillin in various solvents at 25° C.
[3] = Solubility of vanillin in dibutyl maleate-solvent mixed solvents (1:1) at 25° C.

Solubility (mass %) of vanillin in solvent-heptane mixed solvent (1:1) at 25° C. ([1]; Benzyl benzoate-heptane (1:1)): 1.2% mass % | Solubility (mass %) of vanillin in solvent-heptane mixed solvent (1:1) at 25° C. ([1]; Dibenzyl ether-heptane (1:1)): 0.9% mass % | Solubility (mass %) of vanillin in solvent-heptane mixed solvent (1:1) at 25° C. ([1]; Dibutyl adipate-heptane (1:1)): 1.4% mass % | Solubility (mass %) of vanillin in solvent-heptane mixed solvent (1:1) at 25° C. ([1]; Dibutyl fumarate-heptane (1:1)): 1.0% mass % | Solubility (mass %) of vanillin in solvent-heptane mixed solvent (1:1) at 25° C. ([1]; Dibutyl succinate-heptane (1:1)): 1.7% mass % | Solubility (mass %) of vanillin in solvent-heptane mixed solvent (1:1) at 25° C. ([1]; Diethyl phthalate-heptane (1:1)): Oiling out | Solubility (mass %) of vanillin in solvent-heptane mixed solvent (1:1) at 25° C. ([1]; Diethyl sebacate-heptane (1:1)): 1.6% mass % | Solubility (mass %) of vanillin in solvent-heptane mixed solvent (1:1) at 25° C. ([1]; Diisobutyl adipate-heptane (1:1)): 1.4% mass % | Solubility (mass %) of vanillin in solvent-heptane mixed solvent (1:1) at 25° C. ([1]; Ethyl laurate-heptane (1:1)): 0.6% mass % | Solubility (mass %) of vanillin in solvent-heptane mixed solvent (1:1) at 25° C. ([1]; Isopropyl myristate-heptane (1:1)): 0.3% mass % | Solubility (mass %) of vanillin in solvent-heptane mixed solvent (1:1) at 25° C. ([1]; Tetraglyme-heptane (1:1)): Oiling out | Solubility (mass %) of vanillin in solvent-heptane mixed solvent (1:1) at 25° C. ([1]; Tripropionin-heptane (1:1)): Oiling out | Solubility (mass %) of vanillin in solvent-heptane mixed solvent (1:1) at 25° C. ([1]; dibutyl maleate-Heptane (1:1)): 1.7% mass % | Solubility (mass %) of vanillin in solvent-heptane mixed solvent (1:1) at 25° C. ([1]; γ-Undecalactone-heptane (1:1)): 3.6% mass % | Solubility (mass %) of vanillin in solvent-heptane mixed solvent (1:1) at 25° C. ([1]; δ-Decalactone-heptane (1:1)): Oiling out | Solubility (mass %) of vanillin at 25° C. ([2]; solvent 1-Chlorotetradecane): 0.4% mass % | Solubility (mass %) of vanillin at 25° C. ([2]; solvent Benzyl benzoate): 6.6% mass % | Solubility (mass %) of vanillin at 25° C. ([2]; solvent Dibenzyl ether): 5.5% mass % | Solubility (mass %) of vanillin at 25° C. ([2]; solvent Dibutyl adipate): 10.9% mass % | Solubility (mass %) of vanillin at 25° C. ([2]; solvent Dibutyl fumarate): 9.2% mass % | Solubility (mass %) of vanillin at 25° C. ([2]; solvent Dibutyl maleate): 11.3% mass % | Solubility (mass %) of vanillin at 25° C. ([2]; solvent Dibutyl succinate): 15.4% mass % | Solubility (mass %) of vanillin at 25° C. ([2]; solvent Diethyl phthalate): 14.8% mass % | Solubility (mass %) of vanillin at 25° C. ([2]; solvent Diethyl sebacate): 13.6% mass % | Solubility (mass %) of vanillin at 25° C. ([2]; solvent Diisobutyl adipate): 7.7% mass % | Solubility (mass %) of vanillin at 25° C. ([2]; solvent Ethyl laurate): 3.1% mass % | Solubility (mass %) of vanillin at 25° C. ([2]; solvent Isopropyl myristate): 2.0% mass % | Solubility (mass %) of vanillin at 25° C. ([2]; solvent Tetraglyme): 31.3% mass % | Solubility (mass %) of vanillin at 25° C. ([2]; solvent Tripropionin): 18.1% mass % | Solubility (mass %) of vanillin at 25° C. ([2]; solvent n-Pentadecane): 0.05% mass % | Solubility (mass %) of vanillin at 25° C. ([2]; solvent γ-Undecalactone): 16.2% mass % | Solubility (mass %) of vanillin at 25° C. ([2]; solvent δ-Decalactone): 17.4% mass % | Solubility (mass %) of vanillin in dibutyl maleate-solvent mixed solvent (1:1) at 25° C. ([3]; dibutyl maleate-Cyclohexane (1:1)): 2.1% mass % | Solubility (mass %) of vanillin in dibutyl maleate-solvent mixed solvent (1:1) at 25° C. ([3]; dibutyl maleate-Heptane (1:1)): 1.7% mass % | Solubility (mass %) of vanillin in dibutyl maleate-solvent mixed solvent (1:1) at 25° C. ([3]; dibutyl maleate-Hexane (1:1)): 1.7% mass % | Solubility (mass %) of vanillin in dibutyl maleate-solvent mixed solvent (1:1) at 25° C. ([3]; dibutyl maleate-Isooctane (1:1)): 1.8% mass % | Solubility (mass %) of vanillin in dibutyl maleate-solvent mixed solvent (1:1) at 25° C. ([3]; dibutyl maleate-Petroleum ether (1:1)): 1.6% mass % | Solubility (mass %) of vanillin in dibutyl maleate-solvent mixed solvent (1:1) at 25° C. ([3]; dibutyl maleate-Toluene (1:1)): 5.5% mass %
SMILES: COc1cc(C=O)ccc1O [vanillin]

Source: US10975013B2, “Method for producing vanillin” (T. HASEGAWA CO., LTD., priority 2018, dated 2021)
